# From patent US20100015058A1, “RADIOLABELED BBN-RGD HETERODIMERS FOR CANCER TARGETING” (STANFORD UNIVERSITY, priority 2008, published 2010)
# How the values were obtained:
# [1] = molecular target: T1, integrin αvβ3 (Homo sapiens, UniProt P05106+P06756); assay: Competitive cell-binding assay with ^125I-c(RGDyK) on U87MG cells; settings: FIG. 14A
# T1 construct: Experiments were performed on U87MG human glioma cells expressing integrin αvβ3 as previously described; endogenous in cells; host or cells: U87MG human glioblastoma (glioma) cells
# [2] = Small-animal PET of MDA-MB-435 tumor-bearing mice; settings: female, athymic nude, mouse, in vivo, iv, total radioactivity; 30 min p.i., BBN tracer control study, FIG. 44B; read-out: MDA-MB-435 tumor uptake
# [3] = Small-animal PET of PC-3 tumor-bearing mice; settings: male, athymic nude, mouse, in vivo, iv, 3.7 MBq, total radioactivity, PC-3 tumor uptake, PET ROI
# Protocol: (a) PET scans and image analysis were performed using a micro-PET R4 rodent model scanner (Siemens Medical Solutions) as reported by Li et al., J. Nucl. Med. (2007) 48: 1162-1171 and Wu et al., J Nucl. Med. (2005) 46: 1707-1718, both of which are incorporated herein by reference in their entireties). […] Five-minute static PET images were then acquired at 0.5, 1, and 2 h after injection. The images were reconstructed by a 2-dimensional ordered-subsets expectation maximum (OSEM) algorithm. No attenuation or scatter correction was applied. […] The 5-min static PET scans were then acquired at 1 hr after injection. For each small-animal PET scan, regions of interest (ROIs) were drawn over the tumor, normal tissue, and major organs by using vendor software (ASI Pro 5.2.4.0) on decay-corrected whole-body coronal images. The average radioactivity concentration (accumulation) within a tumor or an organ was obtained from mean pixel values within the multiple ROI volume, which were converted to counts/mL/min using a conversion factor. Assuming a tissue density of 1 g/mL, the ROIs were converted to counts/g/min, and then divided by the administered activity to obtain an imaging ROI-derived percentage injected dose per gram of tissue (% ID/g).
# For dynamic PET, 30-min scans (1×30 s, 4×1 min, 1×1.5 min, 4×2 min, 5×3 min; total 15 frames) were started 1 min after injection, and two 5-min static PET images were also acquired at 1 h and 2 h after injection. […] For each small-animal PET scan, regions of interest (ROIs) were drawn over the tumor, normal tissue, and major organs using vendor software ASI Pro 5.2.4.0 on decay-corrected whole-body coronal images. The maximum radioactivity concentrations (accumulation) within a tumor or an organ were obtained from mean pixel values within the multiple ROI volume, and were converted to megabecquerels per milliliter per minute using a conversion factor. These values were then divided by the administered activity to obtain (assuming a tissue density of 1 g/ml) an image ROI-derived percent injected dose per gram (% ID/g).
# The images were reconstructed using a 2-dimensional ordered-subsets expectation maximum algorithm without attenuation or scatter correction.
# For each small-animal PET scan, regions of interest were drawn over each tumor, over normal tissue, and over major organs using vendor software (ASI Pro, version 5.2.4.0) on decay-corrected whole-body coronal images. The maximum radioactivity concentration (accumulation) within a tumor or an organ was obtained from the mean pixel values within the multiple-region-of-interest volume, which were converted to MBq/mL/min using a conversion factor. Assuming a tissue density of 1 g/mL, the regions of interest were converted to MBq/g/min and then divided by the administered activity to obtain an imaging region-of-interest-derived percentage injected dose (% ID)/g.
# [4] = tested on: PC-3 tumor cells; assay: Cell uptake assay on PC-3 tumor cells; assay type: cell-based, human; settings: PC-3 cells, 37° C., within 30 min of incubation, plateau afterward
# Protocol: In the cell uptake experiment, PC-3 cells were seeded into 12-well plates at a density of 5×10^5 cells per well for overnight incubation. Cells were rinsed 3 times with phosphate-buffered saline (PBS), followed by the addition of ^18F-FB-RGD, ^18F-FB-BBN, or ^18F-BBN-RGD to the cultured wells in triplicate (about 2 μCi/well). […] The cell lysate was collected in measurement tubes for counting. The cell uptake was normalized in terms of added radioactivity.
# The cell uptake studies were performed as we have previously described with some modifications (Chen et al., Mol Imaging Biol. (2004) […]; Cai et al., (2006) J. Nuc. Med. 47: 1172-1180, incorporated herein by reference in their entireties). Briefly, PC-3 cells were seeded into 12-well plates at a density of 5×10^5 cells per well and incubated (about 18 kBq/well) with ^68Ga-labeled tracers at 37° C. for 15, 30, 60, and 120 min. Tumor cells were then washed three times with chilled PBS and harvested by trypsinization with 0.25% trypsin/0.02% EDTA (Invitrogen). The cell suspensions were collected and measured in a y counter (Packard, Meriden, Conn.). The cell uptake was expressed as the percent added dose (% AD) after decay correction. Experiments were performed twice with triplicate wells. For efflux studies, ^68Ga-labeled tracers (about 18 kBq/well) were first incubated with PC-3 cells in 12-well plates for 1 h at 37° C. to allow internalization. Then cells were washed twice with PBS, and incubated with cell culture medium for 15, 30, and 60 min. After washing three times with PBS, cells were harvested by trypsinization with 0.25% trypsin/0.02% EDTA. The cell suspensions were collected and measured in a γ counter. Experiments were performed twice with triplicate wells. Data are expressed as percent added dose after decay correction.
# [5] = Octanol/water partition coefficient; assay type: physicochemical; settings: octanol / PBS pH 7.4, room temperature
# Protocol: The mixture was vigorously vortexed for 1 min at room temperature. After centrifugation at 12,500 rpm for 5 min in an Eppendorf microcentrifuge (model 5415R; Brinkman), 200-μL aliquots of both layers were measured using a 7-counter (Packard Instruments). The experiment was performed in triplicate.
# [6] = tested on: DU-145 tumor; assay type: in vivo, mice; settings: integrin αvβ3-positive, low GRPR-expressing tumor
# Protocol: The PC-3 and DU-145 human prostate carcinoma cell lines were purchased from American Type Culture Collection. PC-3 cells were grown in F-12K nutrient mixture (Kaighn's modification) (Invitrogen Corp.), and DU-145 cells were grown in minimum essential medium (Eagle) mixture supplemented with 10% (v/v) fetal bovine serum (Invitrogen) at 37° C. with 5% CO2. The PC-3 and DU-145 tumor models were generated by subcutaneous injection of 5×10^6 tumor cells into the front flank of male athymic nude mice (Harlan).
# No attenuation or scatter correction was applied.
# [7] = molecular target: T2, GRPR (Homo sapiens, UniProt P30550); assay: Displacement cell-binding assay with ^125I-[Tyr4]BBN on PC-3 cells; settings: PC-3 cells, FIG. 14B
# T2 construct: Experiments were performed on GRPR-expressing PC-3 cells following our previously described procedure; endogenous in cells; host or cells: PC-3 human prostate carcinoma cells
# Protocol: Experiments were performed with triplicate samples.
# BBN as the radioligand. […] Experiments were performed twice with triplicate samples.
smiles,measurement,setting,value
CSCC[C@H](NC(=O)[C@H](CC(C)C)NC(=O)[C@H](Cc1c[nH]cn1)NC(=O)CNC(=O)[C@@H](NC(=O)[C@H](C)NC(=O)[C@H](Cc1c[nH]c2ccccc12)NC(=O)[C@H](CCC(N)=O)NC(=O)CCCCCN)C(C)C)C(N)=O [Aca-BBN(7-14)],binding inhibition of ^125I-c(RGDyK),[1],did not show significant binding inhibition
"CSCC[C@H](NC(=O)[C@H](CC(C)C)NC(=O)[C@H](Cc1c[nH]cn1)NC(=O)CNC(=O)[C@@H](NC(=O)[C@H](C)NC(=O)[C@H](Cc1c[nH]c2ccccc12)NC(=O)[C@H](CCC(N)=O)NC(=O)CCCCCNC(=O)c1ccc(F)cc1)C(C)C)C(N)=O [^18F-FB-BBN, reference compound]",tissue uptake at 0.5 h,[2],0.45 ± 0.11 %ID/g
same,tissue uptake at 0.5 h,[3]; 30 min after injection of 3.7 MBq,0.63 ± 0.16 %ID/g
same,tissue uptake at 1 h,"[3]; 60 min after injection of 3.7 MBq, no blocking",0.44 ± 0.1 %ID/g
same,tissue uptake at 2 h,[3]; 120 min after injection of 3.7 MBq,0.29 ± 0.08 %ID/g
same,cell uptake,[4],about 7%
same,logP,[5],1.49 ± 0.02
same,detection of the DU-145 tumor by PET,[6],unable to detect the DU-145 tumor
"N=C(N)NCCC[C@@H]1NC(=O)[C@H](CCCCN)NC(=O)[C@@H](Cc2ccc(O)cc2)NC(=O)[C@H](CC(=O)O)NC(=O)CNC1=O [c(RGDyK), cyclo(Arg-Gly-Asp-D-Tyr-Lys), reference compound]",binding inhibition of ^125I-[Tyr4]BBN with GRPR,[7],did not show significant binding inhibition
